Data set [1] is described as follows: Water adsorption of the crystals (vapor adsorption isotherm). The data set is classed as physicochemical. Conditions: 25° C. As for the experimental part: The Measuring Method of the Water Adsorption of the Crystals (Creation of the Vapor Adsorption Isotherm)
• (1) The measuring method of water adsorption amount and conditions
100 mg of each of the above obtained α-type, γ-type and ε-type crystals were weighed and vacuum dried at 50° C. overnight. Then, under the constant temperature of 25° C., the water adsorption amount of the crystals was determined with a full automatic vapor adsorption measuring apparatus (BELSORP-18, BEL Japan, Inc.) (Mitsuiki et al., J. Agric. Food Chem., vol. 46, no. 9, pp. 3528-3534 (1998)). • (2) The measurement results

Data set [2] in a line: Temperature changes of the powder X-ray diffraction patterns (crystal transition, T-G curves). The data set is classed as physicochemical. Conditions: from T-G curves (FIG. 10). As to the method:
Measurement of the Temperature Changes of the Powder X-Ray Diffraction Patterns of the α-Type, γ-Type, ε-Type, and η-Type Crystals
• (1) The measuring method and conditions
The measurement was conducted in the same conditions as those of the above measurement of the powder X-ray diffraction patterns.

The source of these data is patent publication US7951942B2, “Crystals of phenylalanine derivatives and production methods thereof” (Ajinomoto Co., Inc., priority 2003, dated 2011).

As for `COC(=O)[C@H](Cc1ccc(-n2c(=O)c3cc(N(C)C)ccc3n(C)c2=O)cc1)NC(=O)c1c(Cl)cccc1Cl` [α-type crystal], the “water adsorption (in words)” value in data set [1] (listed as α-type) is “low water adsorption”. The “order of thermodynamic stability of crystal forms at room temperature” value in data set [2] (room temperature) is on record as “α-type>η-type>γ-type>ε-type>θ-type”.

With `COC(=O)[C@H](Cc1ccc(-n2c(=O)c3cc(N(C)C)ccc3n(C)c2=O)cc1)NC(=O)c1c(Cl)cccc1Cl` [γ-type crystal], the “water adsorption (in words)” value in data set [1] (listed as γ-type) is “particularly low water adsorption”.

Consider `COC(=O)[C@H](Cc1ccc(-n2c(=O)c3cc(N(C)C)ccc3n(C)c2=O)cc1)NC(=O)c1c(Cl)cccc1Cl` [θ-type crystal], for which, in data set [2] (high temperature range), the “thermodynamic stability in high temperature range” value is given as “stably exists”.

`COC(=O)[C@H](Cc1ccc(-n2c(=O)c3cc(N(C)C)ccc3n(C)c2=O)cc1)NC(=O)c1c(Cl)cccc1Cl` [ε-type crystal]: in data set [1] (listed as ε-type), the “water adsorption (in words)” value is recorded as “particularly low water adsorption”.
